What was measured:
[1] = Chemical stability in pH 5.7 buffer at room temperature after 1 day; assay type: physicochemical; settings: for remaining at 24 h: pH 5.7 buffer, pH 5.7, read-out: Stability
[2] = Chemical stability in pH 5.7 buffer at room temperature after 1 week; assay type: physicochemical; settings: read-out: Stability
[3] = Chemical stability in pH 5.7 buffer at room temperature after 4 weeks; assay type: physicochemical; settings: read-out: Stability
[4] = Chemical stability in pH 5.7 buffer at room temperature after 8 weeks; assay type: physicochemical; settings: read-out: Stability
[5] = Stability in rabbit corneal homogenate at 37 degC assessed as half life of timolol release; assay type: ADME, tissue-based, Oryctolagus cuniculus, Cornea; settings: in vitro
[6] = Vasodilation activity in rabbit aortic rings assessed as relaxation of 3 uM methoxamine-induced contraction in absence of guanylate cyclase inhibitor 1H-[1,2,4]oxadiazolo[4,3-a]quinoxalin-1-one; assay type: functional, tissue-based; settings: Oryctolagus cuniculus, Aorta
[7] = Vasodilation activity in rabbit aortic rings assessed as relaxation of 3 uM methoxamine-induced contraction in presence of 10 uM guanylate cyclase inhibitor 1H-[1,2,4]oxadiazolo[4,3-a]quinoxalin-1-one; assay type: functional, tissue-based; settings: Oryctolagus cuniculus, Aorta
[8] = Chemical stability in pH 5.7 buffer at room temperature after 12 weeks; assay type: physicochemical; settings: read-out: Stability

Structure (SMILES)	remaining at 24 h [1]	remaining at 168 h [2]	remaining at 672 h [3]	remaining at 1344 h [4]	t1/2 [5]	EC50 [6]	EC50 [7]	remaining at 2016 h [8]	Stability ([1]; buffer, pH 5.7, 24 h)
CC(C)(C)NC[C@H](O)COc1nsnc1N1CCOCC1 [TIMOLOL]						28.8 µM	36.5 µM		
O=[N+]([O-])O[C@@H]1CO[C@H]2[C@@H]1OC[C@@H]2O [ISOSORBIDE MONONITRATE]						9.6 µM	> 100 µM		
COc1cccc(C(=O)O[C@@H](CNC(C)(C)C)COc2nsnc2N2CCOCC2)c1OCCO[N+](=O)[O-].O=C(O)/C=C\C(=O)O	96%	72.1%			> 23.33 h				
CC(C)(C)NC[C@@H](COc1nsnc1N1CCOCC1)OC(=O)c1ccccc1OCCO[N+](=O)[O-].O=C(O)/C=C\C(=O)O	96.5%	82.5%			4.3 h				
COc1cc(OCCO[N+](=O)[O-])ccc1C(=O)O[C@@H](CNC(C)(C)C)COc1nsnc1N1CCOCC1	98.6%	96.3%	84.4%						
CC(C)(C)NC[C@@H](COc1nsnc1N1CCOCC1)OC(=O)c1ccccc1	96%	74.8%							
COc1cc(COCCO[N+](=O)[O-])ccc1C(=O)O[C@@H](CNC(C)(C)C)COc1nsnc1N1CCOCC1	96.7%	94.9%							
CC(C)(C)NC[C@@H](COc1nsnc1N1CCOCC1)OC(=O)c1ccc(OCCO[N+](=O)[O-])cc1OCCO[N+](=O)[O-]	97.9%	84.2%							

Now from value to compound:

remaining at 24 h [1]	remaining at 168 h [2]	remaining at 672 h [3]	remaining at 1344 h [4]	t1/2 [5]	EC50 [6]	EC50 [7]	remaining at 2016 h [8]	Stability ([1]; buffer, pH 5.7, 24 h)	Structure (SMILES)
99.6%	99.6%	97.7%	92.8%	0.167 h	6.7 µM	56.3 µM			COc1cc(COC(=O)CCCCCO[N+](=O)[O-])c(C(=O)O[C@@H](CNC(C)(C)C)COc2nsnc2N2CCOCC2)c(OC)c1.O=C(O)/C=C\C(=O)O
101%	101%	100%	99.6%	> 23.33 h			98.5%		COc1cc(OCCO[N+](=O)[O-])cc(C)c1C(=O)O[C@@H](CNC(C)(C)C)COc1nsnc1N1CCOCC1.O=C(O)/C=C\C(=O)O
98.8%	93%			0.167 h	15.5 µM	32.7 µM			COc1cc(COC(=O)COCCOCCO[N+](=O)[O-])c(C(=O)O[C@@H](CNC(C)(C)C)COc2nsnc2N2CCOCC2)c(OC)c1.O=C(O)/C=C\C(=O)O
98.4%	99.1%	94.7%	94.9%	2 h			93.2%		COc1cc(COC(=O)C(C)(C)CO[N+](=O)[O-])c(C(=O)O[C@@H](CNC(C)(C)C)COc2nsnc2N2CCOCC2)c(OC)c1.O=C(O)/C=C\C(=O)O
99.8%	99.3%	98.3%	98.3%	> 23.33 h			98.3%		COc1cccc(OCCO[N+](=O)[O-])c1C(=O)O[C@@H](CNC(C)(C)C)COc1nsnc1N1CCOCC1.O=C(O)/C=C\C(=O)O
96.5%	96.5%	90.6%		0.2 h					COc1cc(COC(=O)CCCO[N+](=O)[O-])c(C(=O)O[C@@H](CNC(C)(C)C)COc2nsnc2N2CCOCC2)c(OC)c1.O=C(O)/C=C\C(=O)O
100%	100%	98%	96.8%	> 23.33 h			93.2%		COc1cc(COC(=O)CCCCCO[N+](=O)[O-])cc(OC)c1C(=O)O[C@@H](CNC(C)(C)C)COc1nsnc1N1CCOCC1.O=C(O)/C=C\C(=O)O
97.3%	96.7%	95.8%	91.7%	0.667 h			86%		COc1cc(COC(=O)CCOCC(CO[N+](=O)[O-])O[N+](=O)[O-])c(C(=O)O[C@@H](CNC(C)(C)C)COc2nsnc2N2CCOCC2)c(OC)c1.O=C(O)/C=C\C(=O)O (some centres not stated)
				4.62 h				Unstable	COc1ccc(CO[N+](=O)[O-])cc1C(=O)O[C@@H](CNC(C)(C)C)COc1nsnc1N1CCOCC1.O=C(O)/C=C\C(=O)O

— ChEMBL document CHEMBL1151861, “Synthesis of novel nitric oxide (NO)-releasing esters of timolol” (Bioorg Med Chem Lett, 2009)
